Series [1] deals with NOD mice. Description: Development of diabetes in NOD mice treated with CD154 peptides. As to conditions: weekly iv injection from 6 weeks of age, diabetic = blood glucose above 250 mg/dL on 3 consecutive measures. The series is classed as in vivo, mouse. The procedure: (§1) Peptides were designed based on the amino acid sequence of mouse CD154 protein (SEQ ID NO:1) in the SwissPro database. […] Weekly after the initial injection, another 100 ug of peptide (or 100 ul of saline in the case of the Control mice) was injected into the tail vein. At 10 weeks of age, mice were monitored for diabetes, as indicated by a blood glucose level greater than 250 mg/dL for three consecutive days. During this time, blood was also taken from the tail vein, or by sub-mandibular venal puncture, and the level of CD4+ and CD8+ cells determined by flow cytometry using antibodies for CD4 protein and CD8 protein.
NOD mice at 6 weeks of age were injected weekly iv with 25 ug (1 mg/kg) of each peptide through 45 weeks. Each cohort included 10 animals. Blood glucoses were measured and levels at 250 mg/dl or higher for 3 consecutive measures were considered diabetic. […] (This is showing in FIG. 1).

The test system of series [2] is ApoE-/- mice. The series can be described thus: LDL cholesterol in ApoE-/- mice. The series is classed as in vivo, mouse. As to conditions: 1 mg/kg IV once a week for 4 weeks, treated versus untreated. The procedure:
In this study, six ApoE−/− mice received a normal chow diet from 0 to 20 weeks of age. At 20 weeks of age, three mice were randomly assigned to receive dose of 1 mg/kg of KGYY6 (6-mer—SEQ ID NO:4) by IV tail injection, once a week for a period of 4 weeks. Control mice received vehicle only.

For series [3], the system named is ApoE-/- mice. Description: Atherosclerotic changes in ApoE-/- mice on high fat diet (en-face Sudan IV, Paigen method, trichrome). The series is classed as in vivo, mouse. As to the method: ApoE−/− mice were fed a high fat diet for 16 weeks. Mice were randomly assigned to receive dose of 1 mg/kg of KGYY6 (6-mer—SEQ ID NO:4) by IV tail injection, once a week for a period of 4 weeks. Control mice received vehicle only. Atherosclerosis was investigated by several methods. […] FIG. 28A is an image of KGYY6 treated aortic en-face Sudan IV staining and FIG. 28B is an image of control (untreated) aortic en-face Sudan staining.
Further, measurement of plaque area and morphology was performed using the Paigen method. This method obtains sequential 5 um aortic cross sections from the aortic root beginning at the valve leaflets into the ascending aorta. At 50 um intervals, slides are stained after which the area of atherosclerotic lesion is measured. Individual plaque area measurements are plotted against the micrometer intervals and a curve is established, with the area under the curve (AUC) giving the total volume of plaque.
ApoE−/−mice (n=16, 4 male and 4 female per group), fed a 60% high fat diet (Research Diets) for 16 weeks. 8 mice were injected with 1 mg/kg KGYY6 and […] with vehicle alone. Glucose tolerance testing (GTT) was performed by fasting 6 hours, followed by intraperitoneal injection of 1 g/kg body weight glucose in water. Both blood glucose and serum insulin were measured at 0, 15 min, 30 min, 60 min and 2 hours.

Series [4] concerns CD3+CD4+CD40+ splenic cells (Th40 cells). Description: In vitro cytokine production of splenic Th40 cells, flow cytometry. The series is classed as cell-based, mouse. As to conditions: splenic lymphocytes of ApoE and C57BL/6 mice, overnight with varying concentrations of peptide. The procedure: Spleens from ApoE mice and C57BL/6 mice were processed for lymphocytes. ApoE−/− and C57BL/6 mice were fed a 60% high fat diet (research diet) for 1 week. Splenic lymphocytes were treated with 6-mer in vitro for 24 hours. Cells were placed in media overnight in the presence of varying concentrations of 6-mer peptides. The following morning, Brefeldin A was administered for 4 hours. All cells were stained for CD3, CD4, CD40 (Th40 cells) and measured by use of flow cytometry for their production of IL2, INFγ, and IL17a.
Spleens from ApoE mice and C57BL/6 mice were processed for lymphocytes, placed in media overnight in the presence of varying concentrations of KGYY6 peptide. BrefeldinA was administered for four hours.
A general note: Flow cytometry measures light scatter and fluorescence of single cells or particles in a stream.

For series [5], the system named is NOD mice. Description: CD4/CD8 ratio in blood of peptide-treated NOD mice by flow cytometry. The class given is in vivo, mouse. The procedure:
as §1

Series [6] deals with NOD mice. Description: Reversal of hyperglycemia in already diabetic NOD mice. The class given is in vivo, mouse. The procedure: Six mice from that had received the 6-mer peptide in Example 1, and that had subsequently developed diabetes, were injected intravenously with 100 ug of the 15-mer peptide. These mice were then given weekly injections of the 15-mer peptide into their tail veins, and their blood glucose levels monitored twice-weekly. The 15-mer peptide was administered for a total of ten weeks, after which the treatment was stopped.
(§2) At the onset of diabetes, six NOD mice were injected with 100 ug/ml of the 15-mer peptide (SEQ ID NO:9), resulting in the reversal of hyperglycemia in 80% of the recipients. Six weeks after reversal of hyperglycemia, mice were sacrificed and the pancreas removed for analysis. The pancreas was fixed, sectioned and then stained using an aldehyde/fuschsin stain that allows detection of insulin granules. Granulation of the tissue was scored as follows: 4=completely granulated; 3=75% of islet granulated; 2=50% of islet granulated, and peri-insulitis; 1=25% of islet granulated; 0=no insulin granules detected.

For series [7], the system named is CD40+ T-cells. The series can be described thus: Binding of FITC-labeled 15-mer peptide to Th40 cells, flow cytometry. Also noted: species or system mouse. As to conditions: lymphocytes of 9 week old NOD mice. The procedure: Total lymphocytes were isolated from 9 week old NOD mice. The lymphocytes were incubated with […], anti-CD8, and an FITC-labeled 15-mer peptide, and then analyzed by flow cytometry. Cells were gated for CD4 (both CD4hi and CD4lo populations were included) and CD4 versus the 15-mer peptide.

In series [8] the test system is B cells. The series can be described thus: Binding of FITC-labeled 15-mer peptide to B cells, flow cytometry. Also noted: species or system mouse. As to conditions: B cells from spleens of NOD mice, 90% CD40 positive. As to the method:
B cells were isolated from the spleens of NOD mice. Sorted MHC-II+ cells were purified from total lymphocytes. Cells were stained with FITC-labeled 15 mer peptide, anti-CD40, and B cell markers CD19 and CD21. MHC-II+ cells were gated for CD19+ and CD21+ and then 15-mer peptide versus CD40 antibody was measured.

Series [9] has as its system blood cells. The series can be described thus: Binding of biotin-conjugated 15-mer peptide to whole blood cells of type-I diabetic and control subjects. Details: species or system human. As to conditions: type-I diabetes patients versus non-diabetic controls, absorbance at 405 nm. As to the method:
1 ml of whole blood was obtained from each individual and incubated with biotin-conjugated, 15-mer peptide. The cells were then exposed to horseradish peroxidase (HRP)-avidin, washed and the absorbance at 405 nm determined using a spectrophotometer.

The subject of series [10] is NOD mice. Description: Insulin granulation of pancreas in NOD mice after reversal of hyperglycemia. The class given is in vivo, mouse. As to conditions: six weeks after reversal of hyperglycemia, versus irrelevant peptide. The procedure:
as §2

For series [11], the system named is ApoE deficient mice. The series can be described thus: Atherosclerosis in ApoE deficient mice on normal chow, aortic arch analysis. The series is classed as in vivo, mouse. The procedure: ApoE deficient mice on a normal chow diet were selected to receive a dose of 1 mg/kg of the 15-mer peptide (SEQ ID NO: 7) by IV tail injection, three times a week over a period of […], beginning at 9 weeks of age and also utilized a control. At 25 weeks, the animals were euthanized, weighed, and then had blood, spleen, and pancreas removed for analysis. The subjects were then perfused through cardiac puncture with 4% paraformaldehyde. Aortic arches were dissected, dehydrated in sucrose gradient and then flash frozen.
FIG. 17 provides an example of the lesser curvature of the aortic arch, defined proximally from the aortic outflow (AO). Of the segments seen in the trichrome stain, an intimal distance of […] was measured distally. The aortic-arch wall area subtended by this 2.5 mm stretch of the intima was calculated for each section of all mice, with maximal area of the inner-aortic-arch wall of each mouse used to compute averages per group. The luminal surface (L), aortic arch (AO), and innominate artery (I) are labelled in this FIG. 17.
Plaque was subdivided based on morphology of early lesions (observable as fatty streaks containing macrophage derived foam cells with varying degrees of lipid accumulation) compared with more advanced fibroatheromas (containing varying degrees of lipid or necrotic core and fibrous caps). All plaque within the designated 2.5 mm segment were included.

Series [12] deals with ApoE-/- mice. Description: Existing atherosclerotic disease in ApoE-/- mice, 4 weeks of treatment, plaque morphology. The series is classed as in vivo, mouse. As to the method: In this study, six ApoE−/− mice received a normal chow diet from 0 to 20 weeks of age. At 20 weeks of age, three mice were randomly assigned to receive dose of 1 mg/kg of KGYY15 (15-mer—SEQ ID NO:7) by IV tail injection, once a week for a period of 4 weeks. Control mice received vehicle only. After 4 weeks of treatment, animals were euthanized then perfused through cardiac puncture with 4% paraformaldehyde. Aortic arches were dissected in surcrose gradient and flash frozen. Approximately fifty, […] longitudinal sections were obtained per mouse. Slides were treated with trichrome stain and analyzed using cellSens software for measurements. Total plaque was measured including 2.5 mm lesser curvature and innominate artery.

A short description of series [13]: Clot study in whole human blood. As to conditions: dosing levels similar to murine studies. As to the method:
Whole human blood was administered the peptide in accordance with similar dosing levels to those used for murine studies.

[14] abbreviates: trichrome staining, Image Pro Plus analysis.
The mark [15] stands for this setting: 1 mg/kg IV once a week for 4 weeks.

Take KKGYYT [KGYY6]: in series [1], the “development / onset of diabetes” value was “prevents diabetes onset in NOD mice”. Besides, in series [2], the “reduction in LDL cholesterol values” is given as more than 50%. For the same substance, in series [3] (ApoE-/- mice, high fat diet 16 weeks, 1 mg/kg IV once a week for 4 weeks), the “lesion areas, en-face Sudan IV stain” value was “significant reduction in lesion areas”. For the same substance, the “plaque volume (area under the curve), Paigen method” value in [3] (ApoE-/- mice, high fat diet, aortic root cross sections) is recorded as “reduction in plaque volume under the curve”. In series [3] (setting [14]), the “plaque composition: collagen” value is “increased collagen” and the “plaque composition: smooth muscle content” value is recorded as “reduced smooth muscle content”. In addition, in [4], the “production of IFNg” value is “varying degrees of reduction”, the “production of IL2” value is given as “varying degrees of reduction” and the “production of IL17a” value is recorded as “varying degrees of reduction”.

On to VLQWAKKGYYTMK [13-mer], for which the “development / onset of diabetes” value in [1] is listed as “significant effects on the development of diabetes”.

For the substance “VLQWAKKGYYTMKSN (VLQWAKKGYYTMKSK) [15-mer, 15-mer peptide from mouse CD154]”, the “development / onset of diabetes” value in series [1] was “prevented the onset of diabetes”. Also, the “development / onset of diabetes” value in series [1] (listed as KGYY15) is listed as “prevents diabetes onset in NOD mice”. Moreover, the “compromise of the immune system as determined by the CD4/CD8 ratio” value in [5] was “did not result in compromise of the immune system”. The reversal of hyperglycemia entry in series [6] (already diabetic NOD mice, 100 ug iv weekly for ten weeks) is on record as “can reverse hyperglycemia”. Moreover, the “return of hyperglycemia after cessation of the treatment” value in series [6] (diabetic NOD mice, treatment stopped after ten weeks) was not above 7 weeks. The “recipients with reversal of hyperglycemia” value in [6] (six NOD mice injected at onset of diabetes) stood at 80%. In [7], the “CD40+ T-cells that bind the peptide” value amounted to 90%. Further, the “B cells that bound the peptide” value in series [8] stood at 8%. For the same substance, the “peptide binding activity of blood cells” value in [9] was “higher 15-mer peptide binding activity than cells from non-diabetic controls”. In series [10], the “insulin granulation of the pancreas” value is “preserved insulin granules in the majority of the mice”. Moreover, the atherosclerosis result in [11] (1 mg/kg IV three times a week) is “abrogates atherosclerosis”. In addition, the “total area of the 2.5 mm segment of the lesser curvature of the aortic arch” value in [11] (1 mg/kg IV three times a week from 9 weeks of age) is on record as “substantially reduced”. Also, in series [11] (1 mg/kg IV three times a week, plaque within 2.5 mm segment), the “total number of plaque” value was “significantly decreased”. Moreover, in series [12] (setting [15]), the “average cap width (cap size)” value is “greater”, the “average core width (core size/plaque size)” value is recorded as “decreased” and the “cap to core ratio of advanced plaques” value is on record as “reduced”. Besides, the “number of individual early plaques and advanced plaques” value in [12] (1 mg/kg IV once a week for 4 weeks from 20 weeks of age) is listed as “reduced”. For the same substance, the “clotting of whole human blood” value in [13] is recorded as “does not modify or change the clotting of whole human blood significantly outside of normally recognized levels”.
